In ChEMBL document CHEMBL3046509, “Synthesis and structure--activity relationships of substituted cinnamic acids and amide analogues: a new class of herbicides” (2009):

How the values were obtained:
Assay in all cases: whole plant or invertebrate
Assay type in all cases: functional
Details in all cases: Raphanus sativus, Japanese White, 120 h
[1] = tested on: Radish
Description: Herbicidal activity against Raphanus sativus var.Japanese White (radish) assessed as inhibition of seed germination at 100 ppm at 25 degC measured after 5 days

[2] = tested on: Radish; remark: listed apart in the source
Description: Herbicidal activity against Raphanus sativus var.Japanese White (radish) assessed as inhibition of seed germination at 50 ppm at 25 degC measured after 5 days

[3] = tested on: Radish; remark: listed apart in the source
Description: Herbicidal activity against Raphanus sativus var.Japanese White (radish) assessed as inhibition of seed germination at 200 ppm at 25 degC measured after 5 days

Row | Compound | inhibition at 100 ppm [1] | inhibition at 50 ppm [2] | inhibition at 200 ppm [3]
1 | O=C(/C=C/c1ccccc1[N+](=O)[O-])Nc1ccccc1 | 86.7% | 73.3% | 100%
2 | COc1ccc(/C=C/C(=O)Nc2ccc(C)cc2)cc1 | 93.3% | 70% | 100%
3 | O=C(O)/C=C/c1ccccc1[N+](=O)[O-] | 86.7% | 70% | 100%
4 | O=C(/C=C/c1ccccc1[N+](=O)[O-])Nc1ccccc1Cl | 93.3% | 86.7% | 100%
5 | O=C(/C=C/c1cccc([N+](=O)[O-])c1)Nc1ccccc1Cl | 93.3% | 83.3% | 100%
6 | O=C(/C=C/c1ccc([N+](=O)[O-])cc1)Nc1ccccc1Cl | 86.7% | 80% | 100%
7 | O=C(/C=C/c1cccc(Cl)c1)Nc1ccccc1Cl | 53.3% | 33.3% | 76.7%
8 | COc1ccc(/C=C/C(=O)Nc2ccccc2Cl)cc1 | 83.3% | 76.7% | 96.7%
9 | O=C(/C=C/c1cccc(O)c1)Nc1ccccc1Cl | 80% | 56.7% | 93.3%
10 | O=C(O)/C=C/c1cccc(O)c1 | 86.7% | 56.7% | 100%
11 | O=C(O)/C=C/c1ccc([N+](=O)[O-])cc1 | 93.3% | 70% | 96.7%
12 | O=C(/C=C/c1cccc(Cl)c1)Nc1ccccc1 [3-CHLORO-CINNAMANILIDE] | 93.3% | 70% | 100%
13 | O=C(O)/C=C/c1cccc(Cl)c1 [3-CHLORO-CINNAMIC ACID] | 76.7% | 53.3% | 93.3%
14 | O=C(/C=C/c1cccc(O)c1)Nc1ccccc1 [3-HYDROXY-CINNAMANILIDE] | 86.7% | 53.3% | 100%
15 | O=C(/C=C/c1cccc([N+](=O)[O-])c1)Nc1ccccc1 [3-NITRO-CINNAMANILIDE] | 73.3% | 70% | 100%
16 | O=C(O)/C=C/c1cccc([N+](=O)[O-])c1 [3-NITRO-CINNAMIC ACID] | 80% | 70.3% | 100%
17 | COc1ccc(/C=C/C(=O)Nc2ccccc2)cc1 [4-METHOXY-CINNAMANILIDE] | 76.7% | 53.3% | 93.3%
18 | COc1ccc(/C=C/C(=O)O)cc1 [4-METHOXYCINNAMIC ACID] | 66.7% | 56.7% | 93.3%
19 | Cc1ccc(NC(=O)/C=C/c2ccccc2[N+](=O)[O-])cc1 [4-METHYL-(2'-NITRO)CINNAMANILIDE] | 80% | 63.3% | 93.3%
20 | Cc1ccc(NC(=O)/C=C/c2cccc(Cl)c2)cc1 [4-METHYL-(3'-CHLORO)CINNAMANILIDE] | 83.3% | 70% | 93.3%
21 | Cc1ccc(NC(=O)/C=C/c2cccc([N+](=O)[O-])c2)cc1 [4-METHYL-(3'-NITRO)CINNAMANILIDE] | 86.7% | 73.3% | 96.7%
22 | O=C(/C=C/c1ccccc1[N+](=O)[O-])Nc1ccc([N+](=O)[O-])cc1 [4-NITRO-(2'-NITRO)CINNAMANILIDE] | 86.7% | 73.3% | 96.7%
23 | O=C(/C=C/c1ccc([N+](=O)[O-])cc1)Nc1ccc([N+](=O)[O-])cc1 [4-NITRO-(4'-NITRO)CINNAMANILIDE] | 66.7% | 60% | 93.3%
24 | O=C(/C=C/c1ccc([N+](=O)[O-])cc1)Nc1ccccc1 [4-NITRO-CINNAMANILIDE] | 90% | 83.3% | 100%
25 | O=C(O)/C=C/c1ccc(O)cc1 [COUMARIC ACID] | 73.3% | 53.3% | 100%
26 | CSc1nnc(C(C)(C)C)c(=O)n1N [METRIBUZIN] | 93.3% | 80% | 100%
